Data as given in PMC11057469, “Quantitative cross-species comparison of serum albumin binding of per- and polyfluoroalkyl substances from five structural classes” (Toxicological Sciences, 2024).
pKd: −log10 of the molar value. Like-named read-outs stand apart in the source and are kept apart here.

Assays:
[1] = pig, after oral exposure; ref Fasano et al., 2006; Xie et al., 2020; cited from earlier work
[2] = rat, after oral exposure; ref Fasano et al., 2006; Xie et al., 2020; cited from earlier work
Rat serum albumin (RSA) = Rat serum albumin (RSA) (Rattus norvegicus, UniProt P02770); assay: biochemical; conditions: for ΔTm: rat, pH 7.4; for difference in binding affinity, RSA affinity greater than HSA: RSA compared with HSA, from DSF Kd
Rat serum albumin (RSA), sequence (P02770 25-608): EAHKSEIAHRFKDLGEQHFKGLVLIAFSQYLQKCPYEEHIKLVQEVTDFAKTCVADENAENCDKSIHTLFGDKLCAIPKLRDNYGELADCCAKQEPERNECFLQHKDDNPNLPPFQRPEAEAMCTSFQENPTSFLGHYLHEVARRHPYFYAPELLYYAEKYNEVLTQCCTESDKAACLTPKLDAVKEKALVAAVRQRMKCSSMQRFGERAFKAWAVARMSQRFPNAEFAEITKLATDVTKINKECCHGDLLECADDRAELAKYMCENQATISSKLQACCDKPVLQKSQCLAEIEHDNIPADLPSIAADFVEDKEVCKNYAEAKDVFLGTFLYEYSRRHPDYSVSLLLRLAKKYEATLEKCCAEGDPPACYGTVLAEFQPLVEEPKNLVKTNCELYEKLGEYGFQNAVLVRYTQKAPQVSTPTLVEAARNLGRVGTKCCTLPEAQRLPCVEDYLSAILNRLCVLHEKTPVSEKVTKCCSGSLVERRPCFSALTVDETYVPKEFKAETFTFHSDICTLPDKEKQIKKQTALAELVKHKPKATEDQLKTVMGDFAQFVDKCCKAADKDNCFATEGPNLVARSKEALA
Procedure: (§1) Serum albumin stocks (1 mM) were prepared by reconstituting lyophilized stocks in HBS, with expected protein concentrations confirmed using the colorimetric Bio-Rad DC Protein Assay (Hercules, California).
(§2) A minimum of 2 independent plates were run for each protein-ligand combination, with 3 replicates per sample on each plate. Controls on each plate included a no protein control, matching vehicle control (no ligand), and 3 concentrations of OA (1, 2, 3 mM) and/or PFHxA (0.3, 1, 3 mM) as positive controls. The concentration of albumin that yielded maximal signal-to-noise ratio was optimized for each species. […] For concentration-response analyses, PFAS stock solutions were serially diluted into HBS.

[3] = target: human serum albumin (HSA) (Homo sapiens, UniProt P02768); assay: biochemical
human serum albumin (HSA), sequence (P02768 25-609): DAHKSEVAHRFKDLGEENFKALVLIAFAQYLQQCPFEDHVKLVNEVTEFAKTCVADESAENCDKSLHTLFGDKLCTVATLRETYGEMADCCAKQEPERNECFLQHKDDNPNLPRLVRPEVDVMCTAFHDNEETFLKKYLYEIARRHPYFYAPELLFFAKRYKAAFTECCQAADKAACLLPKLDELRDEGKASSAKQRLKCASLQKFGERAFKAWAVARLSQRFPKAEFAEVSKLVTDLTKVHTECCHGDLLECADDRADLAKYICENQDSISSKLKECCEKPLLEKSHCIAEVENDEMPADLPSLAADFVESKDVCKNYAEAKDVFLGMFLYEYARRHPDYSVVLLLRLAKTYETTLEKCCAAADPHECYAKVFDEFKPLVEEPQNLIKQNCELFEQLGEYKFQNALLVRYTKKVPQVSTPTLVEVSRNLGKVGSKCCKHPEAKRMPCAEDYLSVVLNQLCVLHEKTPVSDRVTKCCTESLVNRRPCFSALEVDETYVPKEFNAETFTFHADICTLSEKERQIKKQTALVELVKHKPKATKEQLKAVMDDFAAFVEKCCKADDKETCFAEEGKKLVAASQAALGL
Procedure: as §1, §2

[4] = target: porcine serum albumin (PSA) (Sus scrofa, UniProt P08835); assay: biochemical; conditions: for ΔTm: pig, pH 7.4
porcine serum albumin (PSA), sequence (P08835 25-607): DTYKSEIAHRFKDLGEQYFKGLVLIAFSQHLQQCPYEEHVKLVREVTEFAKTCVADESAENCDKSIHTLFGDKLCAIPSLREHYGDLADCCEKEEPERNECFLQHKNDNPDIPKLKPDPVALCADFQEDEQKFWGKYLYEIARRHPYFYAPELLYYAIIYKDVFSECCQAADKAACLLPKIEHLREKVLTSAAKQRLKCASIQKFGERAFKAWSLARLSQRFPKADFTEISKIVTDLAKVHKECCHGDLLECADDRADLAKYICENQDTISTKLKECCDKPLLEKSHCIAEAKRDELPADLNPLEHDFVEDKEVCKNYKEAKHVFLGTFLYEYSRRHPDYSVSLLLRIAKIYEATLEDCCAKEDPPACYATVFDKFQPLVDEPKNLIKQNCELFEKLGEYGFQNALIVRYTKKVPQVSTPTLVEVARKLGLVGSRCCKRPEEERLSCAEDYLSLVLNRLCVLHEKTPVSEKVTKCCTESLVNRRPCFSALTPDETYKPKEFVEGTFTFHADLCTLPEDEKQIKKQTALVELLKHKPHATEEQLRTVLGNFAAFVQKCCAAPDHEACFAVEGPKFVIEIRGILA
Procedure: as §1, §2

[5] = target: Bovine serum albumin (BSA) (Bos taurus, UniProt P02769); assay: biochemical; conditions: for difference in binding affinity, BSA affinity lower than HSA: BSA compared with HSA; for ΔTm: bovine, pH 7.4
Bovine serum albumin (BSA), sequence (P02769 25-607): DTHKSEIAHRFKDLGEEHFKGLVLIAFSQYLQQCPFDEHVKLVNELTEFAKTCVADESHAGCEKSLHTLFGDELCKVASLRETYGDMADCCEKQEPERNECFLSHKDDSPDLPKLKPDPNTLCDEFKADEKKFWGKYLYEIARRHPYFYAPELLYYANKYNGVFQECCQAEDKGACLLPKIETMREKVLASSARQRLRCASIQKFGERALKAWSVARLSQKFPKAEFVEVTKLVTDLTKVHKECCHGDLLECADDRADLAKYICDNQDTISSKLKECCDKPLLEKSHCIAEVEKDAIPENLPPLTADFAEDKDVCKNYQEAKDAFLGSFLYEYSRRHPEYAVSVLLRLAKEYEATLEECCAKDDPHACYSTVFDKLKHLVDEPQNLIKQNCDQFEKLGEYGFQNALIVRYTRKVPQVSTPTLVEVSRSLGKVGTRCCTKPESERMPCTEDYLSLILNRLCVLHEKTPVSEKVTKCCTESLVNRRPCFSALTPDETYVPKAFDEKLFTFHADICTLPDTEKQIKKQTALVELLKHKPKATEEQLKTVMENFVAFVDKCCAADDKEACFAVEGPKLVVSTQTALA
Procedure: as §2

[6] = elimination half-life in serum/plasma, Human, cited from earlier work
[7] = elimination half-life in serum/plasma, Rat, cited from earlier work
[8] = parameters: method as in Death et al., 2021; conditions: elimination half-life in serum/plasma, Cow; ref Death et al., 2021; cited from earlier work
[9] = parameters: method as in Numata et al., 2014; conditions: elimination half-life in serum/plasma, Pig; ref Numata et al., 2014; cited from earlier work
[10] = RSA, 1 = highest relative affinity, 4 = lowest
[11] = HSA, 1 = highest relative affinity, 4 = lowest
[12] = PSA compared with HSA, from DSF Kd
[13] = PSA, 1 = highest relative affinity, 4 = lowest
[14] = BSA, 1 = highest relative affinity, 4 = lowest

OCCC(F)(F)C(F)(F)C(F)(F)C(F)(F)C(F)(F)C(F)(F)C(F)(F)C(F)(F)F [8:2 FTOH]
accumulation in tissues [1]: did not accumulate
accumulation in tissues [2]: did not accumulate

O=C(O)C(F)(F)C(F)(F)C(F)(F)F [PFBA, Perfluorobutanoic acid]
pKd (Rat serum albumin (RSA)): 2.72
rank order of binding affinity among the four albumins (Rat serum albumin (RSA); [10]): 2
pKd [3]: 2.58
rank order of binding affinity among the four albumins [3, 11]: 3
pKd [4]: 2.89
difference in binding affinity, PSA affinity greater than HSA [4, 12]: 69.4%
rank order of binding affinity among the four albumins [4, 13]: 1
pKd [5]: 2.51
rank order of binding affinity among the four albumins [5, 14]: 4
Half-life ([6]; ref Pizzurro et al., 2019): 3.1 days^a
Half-life ([7]; ref Pizzurro et al., 2019): 1–9.2 h^a

OCCC(F)(F)C(F)(F)C(F)(F)C(F)(F)C(F)(F)C(F)(F)F [6:2 FTOH, 1H, 1H, 2H, 2H-perfluorooctanol]
ΔTm, maximum change in melting temperature (Rat serum albumin (RSA); RSA 0.18 mM, DSF, value (±SEM), N/A = nonbinding): no changes in albumin TM were detected
ΔTm, maximum change in melting temperature ([3]; HSA 0.13 mM, DSF, value (±SEM), N/A = nonbinding): no changes in albumin TM were detected
ΔTm, maximum change in melting temperature ([4]; PSA 0.11 mM, DSF, value (±SEM), N/A = nonbinding): no changes in albumin TM were detected
ΔTm, maximum change in melting temperature ([5]; BSA 0.18 mM, DSF, value (±SEM), N/A = nonbinding): no changes in albumin TM were detected

O=S(=O)(O)CCC(F)(F)C(F)(F)C(F)(F)C(F)(F)C(F)(F)C(F)(F)F [6:2 FTSA, 2H, 2H, 3H, 3H-perfluorooctane-1-sulfonate]
rank order of binding affinity among the four albumins (Rat serum albumin (RSA); [10]): 1
ΔTm (Rat serum albumin (RSA)): 7.99 °C
rank order of binding affinity among the four albumins [3, 11]: 2
ΔTm ([3]; human, pH 7.4): 3.53 °C
rank order of binding affinity among the four albumins [4, 13]: 3
ΔTm [4]: 8.72 °C
pKd [5]: 2.86
difference in binding affinity, BSA affinity lower than HSA ([5]; from DSF Kd): 108.9%
rank order of binding affinity among the four albumins [5, 14]: 4
ΔTm [5]: 17.2 °C

O=S(=O)(O)C(F)(F)C(F)(F)C(F)(F)C(F)(F)C(F)(F)C(F)(F)C(F)(F)C(F)(F)F [PFOS, perfluorooctanesulfonic acid]
binding affinity of 8-carbon congener greater than 4-carbon congener (Rat serum albumin (RSA)): 108.2%
rank order of binding affinity among the four albumins (Rat serum albumin (RSA)): 2
ΔTm (Rat serum albumin (RSA)): 4.76 °C
pKd [3]: 3.16
binding affinity of 8-carbon congener greater than 4-carbon congener [3]: 83.5%
rank order of binding affinity among the four albumins [3]: 3
pKd ([3]; human, pH 7.4): 3.21
ΔTm ([3]; human, pH 7.4): 15.9 °C
binding affinity of 8-carbon congener greater than 4-carbon congener [4]: 106.7%
difference in binding affinity, PSA affinity greater than HSA [4]: 57.9%
rank order of binding affinity among the four albumins [4]: 1
ΔTm [4]: 5.74 °C
hill slope of the biphasic melt curve [5]: 3.5 ± 0.3
rank order of binding affinity among the four albumins [5]: 4
ΔTm [5]: 15.3 °C
Half-life ([6]; ref Pizzurro et al., 2019): 3.3–5.4 years^a
Half-life [8]: 39–120 days^c
Half-life [9]: 1.7 years^d
Half-life ([7]; ref Pizzurro et al., 2019): 24–83 days^a

O=C(O)C(F)(F)C(F)(F)C(F)(F)C(F)(F)C(F)(F)F [PFHxA, Perfluorohexanoic acid]
pKd (Rat serum albumin (RSA)): 2.88
rank order of binding affinity among the four albumins (Rat serum albumin (RSA); [10]): 2
pKd [3]: 2.77
rank order of binding affinity among the four albumins [3, 11]: 3
pKd [4]: 3.02
difference in binding affinity, PSA affinity greater than HSA [4, 12]: 57.1%
rank order of binding affinity among the four albumins [4, 13]: 1
pKd [5]: 2.66
difference in binding affinity, BSA affinity lower than HSA ([5]; from DSF Kd): 23.7%
rank order of binding affinity among the four albumins [5, 14]: 4
Half-life ([6]; ref Lau, 2015): 32 days^b
Half-life [9]: 4.1 days^d
Half-life ([7]; ref Russell et al., 2013): 0.4–9.8 h^e

O=C(O)C(F)(F)C(F)(F)C(F)(F)C(F)(F)C(F)(F)C(F)(F)C(F)(F)F [PFOA, perfluorooctanoic acid]
pKd (Rat serum albumin (RSA)): 3.40
difference in binding affinity, RSA affinity greater than HSA (Rat serum albumin (RSA)): 65.5%
rank order of binding affinity among the four albumins (Rat serum albumin (RSA); [10]): 2
binding affinity of 8-carbon congener greater than 4-carbon congener (Rat serum albumin (RSA); RSA, PFOA vs PFBA, PFOS vs PFBS): 130.4%
pKd [3]: 3.10
rank order of binding affinity among the four albumins [3, 11]: 3
binding affinity of 8-carbon congener greater than 4-carbon congener ([3]; HSA, PFOA vs PFBA, PFOS vs PFBS): 107.9%
pKd [4]: 3.43
difference in binding affinity, PSA affinity greater than HSA [4, 12]: 72.4%
rank order of binding affinity among the four albumins [4, 13]: 1
binding affinity of 8-carbon congener greater than 4-carbon congener ([4]; PSA, PFOA vs PFBA, PFOS vs PFBS): 110.3%
pKd [5]: 3.00
difference in binding affinity, BSA affinity lower than HSA ([5]; from DSF Kd): 22.5%
rank order of binding affinity among the four albumins [5, 14]: 4
binding affinity of 8-carbon congener greater than 4-carbon congener ([5]; BSA, PFOA vs PFBA): 102.2%
Half-life ([6]; ref Pizzurro et al., 2019): 2.3–8.5 years^a
Half-life [8]: 0.8–1.3 days^c
Half-life [9]: 236 days^d
Half-life ([7]; ref Pizzurro et al., 2019): 0.1–15 days^a

O=S(=O)(O)C(F)(F)C(F)(F)C(F)(F)C(F)(F)F [PFBS, perfluorobutanesulfonic acid]
pKd (Rat serum albumin (RSA)): 2.85
difference in binding affinity, RSA affinity greater than HSA (Rat serum albumin (RSA)): 17.5%
rank order of binding affinity among the four albumins (Rat serum albumin (RSA); [10]): 3
pKd [3]: 2.77
rank order of binding affinity among the four albumins [3, 11]: 4
pKd [4]: 2.90
difference in binding affinity, PSA affinity greater than HSA [4, 12]: 29.4%
rank order of binding affinity among the four albumins [4, 13]: 2
rank order of binding affinity among the four albumins [5, 14]: 1
difference in binding affinity, HSA affinity lower than BSA ([5]; HSA compared with BSA, from DSF Kd): 71.0%
Half-life ([6]; ref Pizzurro et al., 2019): 25.8 days^a
Half-life [9]: 43 days^d
Half-life ([7]; ref Pizzurro et al., 2019): 0.6–7.4 h^a

O=C(O)C(F)(OC(F)(F)C(F)(F)C(F)(F)F)C(F)(F)F (centres unmarked) [HFPO-DA, hexafluoropropylene oxide-dimer acid]
pKd (Rat serum albumin (RSA)): 2.79
rank order of binding affinity among the four albumins (Rat serum albumin (RSA); [10]): 2
pKd [3]: 2.80
rank order of binding affinity among the four albumins [3, 11]: 1
pKd [4]: 2.67
difference in binding affinity, HSA affinity greater than PSA ([4]; HSA compared with PSA, from DSF Kd): 29.8%
rank order of binding affinity among the four albumins [4, 13]: 3
pKd [5]: 2.59
difference in binding affinity, BSA affinity lower than HSA ([5]; from DSF Kd): 47.6%
rank order of binding affinity among the four albumins [5, 14]: 4
